The values below come from patent US12214080B2, “Micronized lipids” (MCAL Therapeutics Inc., priority 2021, dated 2025).

Entries after “also recorded” stand apart in the source; their conditions may differ.

A short description of series [1]: Solubility and general physicochemical properties of MCAL-201. As to the method:
The general and physiochemical properties of MCAL-201 are: • 1,2-EPRG has a molecular weight of 611.05 g/mol • Empirical formula: C39H78O4 • Appearance: White powder • Particle size: 1-10 μm (post micronization) • Hygroscopicity: Low • Chirality: Racemic • Enantiomeric excess: 0 • Melting point: 57° C. • Solubility: Insoluble in water. Soluble in chloroform (40 mg/mL) and castor oil (25 mg/mL)
However, preparation of a water soluble cyclodextrin inclusion complex of MCAL-201 was used in nonclinical efficacy studies. In addition, solutions of MCAL-201 in castor oil which can be emulsified to micron sized liquid particles in aqueous buffers can be used to deliver MCAL-201 directly to the tear film lipid layer.

Series [2] has as its system healthy dogs. The experiment in a line: Tear film break-up time (TBUT) after topical ocular administration. The series is classed as in vivo, dog. The following applies: 5 healthy adult dogs, single administration (FIG. 6). As for the experimental part: (§1) A non-GLP topical ocular administration dose range-finding pharmacology and toxicity study of MCAL-201 was conducted in naïve dogs. The primary study objective was to assess the tolerability of topical ocular administration of MCAL-201 in dogs with a secondary objective to obtain data supporting pharmacological activity in healthy dogs.
(§2) The effects of vehicle and 0.1, 0.5, 1, 3 and 10 mg/mL MCAL-201 delivered as a 35 μL drop bilaterally QD (0.0035, 0.0175, 0.035, 0.105 and 0.35 mg/eye/day) were evaluated in Part I. The dosing regimen is summarized in 3.
(§3) Scoring of the ocular surface and anterior segment of the eye was performed using the SPOTS system by a board-certified veterinary ophthalmologist. SPOTS was performed for each concentration evaluated. To measure TBUT, fluorescein was instilled in the eye and the eye was manually closed and then gently opened to simulate a blink. The time interval between the opening of the eye and the first sign of disruption of the uniform tear film, as indicated by breaks in the fluorescein was recorded in seconds. The procedure was repeated three times on both eyes, first right than left eye. After BID dosing with 10 mg/mL MCAL-201, SPOTS was also performed at 48 hours after the last dose.

Series [3] can be described thus: Chemical and isomeric stability (1,2-EPRG to 1,3-EPRG acyl migration), NMR analysis. The series is classed as physicochemical. From the text:
This led to development of the delivery of solid MCAL-201 as a suspension of crystalline or amorphous micronized solid particle suspended in a water-based formulation isotonic with tear. Although MCAL-201 crystalline drug substance floated on phosphate buffered saline (PBS) it could be suspended following micronization to 1-10 micron particles which could be stably suspended in PBS with the aid of polysorbate 80 as a wetting agent and xanthan gum to adjust density and viscosity of the drug product.

Series [4] in a line: Physical stability of the micronized suspension toward separation of particles. The series is classed as physicochemical. The following applies: suspension in PBS with polysorbate 80 and xanthan gum, room temperature.
Text: Treatment of these particles with poly-sorbate 80 (0.3% w/w) as a wetting agent affords a suspension of the micronized particles in a mixture of xanthan gum (0.1-0.3% w/w, See FIG. 3) in Phosphate Buffered Saline (PBS, pH 6-8, 260-320 mOsm/L) suitable for administration as a stably suspended topical drop or suspension for injection.
Series [5] has as its system naïve dogs. The experiment in a line: Non-GLP topical ocular dose range-finding toxicity and tolerability study (SPOTS, IOP, STT). The series is classed as in vivo. As to the method:
as §1, §2, §3

`CCCCCCCCCCCCCCCCCCCCOCC(CO)OC(=O)CCCCCCCCCCCCCCC` (racemic) [MCAL-201, 1-O-eicosanyl-2-palmitoyl-rac-glycerol]: the Hygroscopicity result in series [1] is listed as “Low”. Moreover, in series [1] (water), the Solubility in water result is “Insoluble; also recorded: extreme insolubility”. Besides, the “Tear film break-up time (TBUT)” value in series [2] is “extended TBUT”. Besides, the “1,3-EPRG isomeric content” value in series [3] (after jet mill micronization, NMR (FIG. 4)) worked out at 1.15 mol %; in series [3] (solid micronized suspension stored at room temperature for 6 weeks, NMR (FIG. 5)), 0.0991 mol %. For the same compound, the “Long-term chemical stability in the liquid solution phase (acyl migration of the palmitoyl group from 2 to 3 position)” value in series [3] (liquid solution phase) is “lacked long-term chemical stability”. For the same compound, the “Isomeric stability in the suspension formulation, duration demonstrated” value in series [3] (micronized MCAL-201 in suspension formulation, room temperature) was 6 weeks. In series [3] (solid phase), the “Isomeric stability in the solid phase compared with solution” value is listed as “far greater than in solution”. In addition, the “Physical stability of the micronized suspension (floating, sinking or aggregation), duration demonstrated” value in series [4] was above 6 months. Also, in series [5] (any time or concentration evaluated (up to 10 mg/mL OU BID for 48 hours)), the “Ocular or systemic adverse events” value is recorded as “no ocular or systemic adverse events”. In addition, the Tolerability result in series [5] (topical ocular 35 μL drop, up to 10 mg/mL OU BID for 48 hours) is listed as “well tolerated”.
